“And” between values parts separate entries of the source, which are not always exact repeats. Identical values can stand only once.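 A five-concentration, 48-hour dose response in 96-well plates underlies each endpoint, interpolated linearly between surrounding concentrations. GI50 is the concentration that inhibits growth by half. The concentration for full growth arrest is given as TGI.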
Key:
Assay in all cases: NCI tumour cell line growth inhibition, 48 h
[1] = tested on: A498 renal
[2] = tested on: A549 NSCLC
[3] = tested on: CAKI-1 renal
[4] = tested on: CCRF-CEM leukemia
[5] = tested on: COLO 205 colon
[6] = tested on: DLD-1 colon
[7] = tested on: DMS 114 small cell lung
[8] = tested on: DMS 273 small cell lung
[9] = tested on: EKVX NSCLC
[10] = tested on: HCC-2998 colon
[11] = tested on: HCT-116 colon
[12] = tested on: HCT-15 colon
[13] = tested on: HL-60(TB) leukemia
[14] = tested on: HOP-18 NSCLC
[15] = tested on: HOP-62 NSCLC
[16] = tested on: HOP-92 NSCLC
[17] = tested on: HT29 colon
[18] = tested on: IGROV1 ovarian
[19] = tested on: K-562 leukemia
[20] = tested on: KM12 colon
[21] = tested on: KM20L2 colon
[22] = tested on: LOX IMVI melanoma
[23] = tested on: M14 melanoma
[24] = tested on: MALME-3M melanoma
[25] = tested on: MCF7 breast
[26] = tested on: MOLT-4 leukemia
[27] = tested on: NCI-H226 lung
[28] = tested on: NCI-H23 lung
[29] = tested on: NCI-H460 lung
[30] = tested on: NCI-H522 lung
[31] = tested on: NCI/ADR-RES ovarian
[32] = tested on: OVCAR-3 ovarian
[33] = tested on: OVCAR-4 ovarian
[34] = tested on: OVCAR-5 ovarian
[35] = tested on: OVCAR-8 ovarian
[36] = tested on: P388 leukemia
[37] = tested on: P388/ADR leukemia
[38] = tested on: RPMI-8226 leukemia
[39] = tested on: RXF 393 renal
[40] = tested on: RXF-631 renal
[41] = tested on: SF-268 CNS
[42] = tested on: SF-295 CNS
[43] = tested on: SF-539 CNS
[44] = tested on: SK-MEL-2 melanoma
[45] = tested on: SK-MEL-5 melanoma
[46] = tested on: SK-OV-3 ovarian
[47] = tested on: SN12C renal
[48] = tested on: SN12K1 renal
[49] = tested on: SNB-19 CNS
[50] = tested on: SNB-75 CNS
[51] = tested on: SNB-78 CNS
[52] = tested on: SW-620 colon
[53] = tested on: U251 CNS
[54] = tested on: UACC-62 melanoma
[55] = tested on: UO-31 renal
[56] = tested on: XF 498 CNS
[57] = tested on: M19-MEL melanoma
[58] = tested on: SK-MEL-28 melanoma
[59] = tested on: UACC-257 melanoma
[60] = tested on: 786-0 renal
[61] = tested on: ACHN renal
[62] = tested on: BT-549 breast
[63] = tested on: DU-145 prostate
[64] = tested on: MDA-MB-231 breast
[65] = tested on: MDA-MB-435
[66] = tested on: MDA-N
[67] = tested on: PC-3 prostate
[68] = tested on: TK-10 renal

C=C1CC2CC[C@@]34C[C@@H]5O[C@@H]6C(O[C@H]7CC[C@H](CC(=O)OC8[C@@H](C)C9OC%10C[C@]%11(C[C@@H]%12O[C@@]%13(C[C@@H](C)[C@@H]%12O%11)C[C@H](C)[C@@H]%11OC%12CC(C(O)CO)OC%12C[C@@H]%11O%13)OC%10CC9O[C@H]8C[C@H]8O[C@@H](CC[C@@H]1O2)C[C@@H](C)C8=C)O[C@@H]7[C@@H]6O3)C5O4 (stereo partly specified)
GI50 [1]: < 0.148 nM
TGI [1]: 0.0167 µM
GI50 [2]: < 0.148 nM
TGI [2]: > 1.48 µM
GI50 [3]: < 0.148 nM
TGI [3]: > 1480 nM
GI50 [4]: < 0.148 nM
GI50 [5]: < 0.148 nM
GI50 [6]: < 0.148 nM
TGI [6]: > 1.48 µM
TGI [7]: 4.28 nM and 19.8 nM
GI50 [8]: < 0.148 nM
TGI [8]: < 0.000148 µM
GI50 [9]: < 0.148 nM
TGI [9]: > 1.48 µM
TGI [10]: 8.65 nM
GI50 [11]: < 0.148 nM
TGI [11]: 0.00327 µM
GI50 [12]: 0.233 nM
GI50 [13]: < 0.148 nM
TGI [14]: > 1.48 µM
GI50 [15]: 0.174 nM
GI50 [16]: < 0.148 nM
TGI [16]: > 1.48 µM
GI50 [17]: < 0.148 nM
TGI [17]: 7.84 nM and 3.21 nM
GI50 [18]: < 0.148 nM
TGI [18]: > 1.48 µM
GI50 [19]: < 0.148 nM
TGI [19]: > 1.48 µM
GI50 [20]: < 0.148 nM
GI50 [21]: < 0.148 nM
GI50 [22]: < 0.148 nM
TGI [22]: 0.394 µM
TGI [23]: 6.75 nM
TGI [24]: 0.00977 µM
TGI [25]: > 1.48 µM
GI50 [26]: < 0.148 nM
TGI [26]: 104 nM
GI50 [27]: < 0.148 nM
GI50 [28]: < 0.148 nM
TGI [28]: 6.8 nM and 1.98 nM
GI50 [29]: < 0.148 nM
TGI [29]: 3.17 nM and 28 nM
GI50 [30]: < 0.148 nM
TGI [30]: 0.594 nM and < 0.148 nM
TGI [31]: 30.4 nM
GI50 [32]: < 0.148 nM
TGI [32]: 1.08 nM and < 0.148 nM
GI50 [33]: > 1480 nM
TGI [33]: > 1.48 µM
GI50 [34]: > 1480 nM
TGI [34]: > 1.48 µM
GI50 [35]: < 0.148 nM
TGI [35]: 30.5 nM
TGI [36]: 15.6 nM
TGI [37]: 0.13 µM
GI50 [38]: < 0.148 nM
TGI [38]: > 1.48 µM
TGI [39]: 4.51 nM
TGI [40]: 3.4 nM
GI50 [41]: < 0.148 nM
TGI [41]: > 1.48 µM
GI50 [42]: < 0.148 nM
TGI [42]: 2.66 nM and 0.528 nM
GI50 [43]: < 0.148 nM
TGI [43]: 5.62 nM and 2.15 nM
TGI [44]: 0.00727 µM
TGI [45]: 0.00591 µM
GI50 [46]: < 0.148 nM
GI50 [47]: < 0.148 nM
TGI [47]: > 1.48 µM
TGI [48]: 0.0162 µM
GI50 [49]: < 0.148 nM
TGI [49]: 0.0127 µM
TGI [50]: 0.00367 µM
GI50 [51]: < 148 pM
TGI [51]: 1320 nM
GI50 [52]: < 0.148 nM
TGI [52]: > 1.48 µM
GI50 [53]: < 0.148 nM
TGI [53]: 0.000191 µM
GI50 [54]: < 0.148 nM
TGI [54]: > 1.48 µM
GI50 [55]: 505 nM
TGI [55]: > 1.48 µM
GI50 [56]: < 0.148 nM

Nc1cc2c(cc1[N+](=O)[O-])[nH]c1c(-c3ccccc3)nccc12
TGI [1]: 79.7 µM
TGI [2]: 69.6 µM
TGI [4]: 74.7 µM
TGI [5]: 44.3 µM
TGI [6]: > 76.5 µM
TGI [7]: 35700 nM
TGI [8]: 48.9 µM
TGI [9]: > 80.5 µM
TGI [10]: 31500 nM
TGI [11]: 36 µM
TGI [12]: > 57.3 µM
TGI [13]: 42.1 µM
TGI [14]: 50.8 µM
TGI [15]: 41.4 µM
TGI [16]: 42.7 µM
TGI [17]: 46800 nM
TGI [18]: 35.9 µM
TGI [19]: > 100 µM
TGI [20]: 35.2 µM
TGI [21]: > 82.8 µM
TGI [22]: 28.8 µM
TGI [57]: 42.7 µM
TGI [24]: 52.1 µM
TGI [25]: > 64.1 µM
TGI [26]: 19800 nM
TGI [27]: 56.5 µM
TGI [28]: 39500 nM
TGI [29]: 39200 nM
TGI [30]: 27500 nM
TGI [31]: 41400 nM
TGI [32]: 48500 nM
TGI [33]: 50.6 µM
TGI [34]: 98.3 µM
TGI [35]: > 100000 nM
TGI [36]: 41000 nM
TGI [37]: 44.5 µM
TGI [38]: > 100 µM
TGI [39]: 73100 nM
TGI [41]: > 100 µM
TGI [42]: 53400 nM
TGI [43]: > 75400 nM
TGI [44]: 38.2 µM
TGI [58]: 87.3 µM
TGI [45]: 31.7 µM
TGI [46]: 55.9 µM
TGI [47]: > 100 µM
TGI [48]: 67.7 µM
TGI [49]: 76.7 µM
TGI [50]: 55.7 µM
TGI [51]: > 58200 nM
TGI [52]: > 81.5 µM
TGI [53]: 55.4 µM
TGI [59]: 42.4 µM
TGI [54]: 27.8 µM
TGI [55]: 28.9 µM
TGI [56]: > 100 µM

CC[C@@H](C)[C@@H]1NC(=O)C(NC(=O)C(CC(C)C)N(C)C(=O)C2CCCN2C(=O)C(C)O)C(C)OC(=O)C(Cc2ccc(OC)cc2)N(C)C(=O)C2CCCN2C(=O)C(CC(C)C)NC(=O)C(C)C(=O)C(C(C)C)OC(=O)C[C@H]1O (stereo partly specified)
TGI [60]: 8.27 nM and 53.3 nM
TGI [61]: 20.4 nM and 53 nM
TGI [62]: 96.7 nM
TGI [63]: 50.4 nM
TGI [10]: 5.11 nM and 31.4 nM
TGI [23]: 6.48 nM and 39 nM
TGI [64]: 19.9 nM and 53 nM
TGI [65]: 3.16 nM and 8.45 nM
GI50 [66]: 2.1 nM
TGI [26]: 54.7 nM and 25.5 nM
TGI [31]: 1880 nM and 359 nM
TGI [36]: 30 nM and < 10.3 nM
GI50 [67]: 2.51 nM
TGI [67]: 42.5 nM and 48.7 nM
TGI [39]: 10 nM and 64.7 nM
TGI [42]: 11.5 nM and 19.4 nM and 29 nM
GI50 [51]: 1.65 pM
TGI [68]: 49.5 nM and 74.1 nM
